Results taken from the supplement of paper PMC11451515.

Tested on: P12-Ichikawa
Experiment: cell viability relative to DMSO control; higher = less cytotoxic
Conditions: 48 h
How it was run: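 Three leukemia lines were tested: NOMO1 and SEM at 500 cells/well and P12-Ichikawa at 1000 cells/well. Each was adapted for at least four passages in each medium and seeded in 5 μl in 1536-well plates, and library compounds in DMSO were pin-dosed from 47 μM to 0.79 nM in 11 threefold steps. After 48 h at 37°C, CellTiter-Glo One luminescence was read. Viability is a percentage relative to DMSO wells on each plate, with cell-free wells as background.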

[1] = HPLM + 10% dialyzed FBS, 0.000781 µM
[2] = HPLM + 10% dialyzed FBS, 0.00234 µM
[3] = HPLM + 10% dialyzed FBS, 0.00702 µM
[4] = HPLM + 10% dialyzed FBS, 0.0211 µM
[5] = HPLM + 10% dialyzed FBS, 0.0632 µM
[6] = HPLM + 10% dialyzed FBS, 0.19 µM
[7] = HPLM + 10% dialyzed FBS, 0.569 µM
[8] = HPLM + 10% dialyzed FBS, 1.71 µM
[9] = HPLM + 10% dialyzed FBS, 5.12 µM
[10] = HPLM + 10% dialyzed FBS, 15.4 µM
[11] = HPLM + 10% dialyzed FBS, 46.1 µM
[12] = RPMI 5 mM glucose + 10% FBS, 0.000781 µM
[13] = RPMI 5 mM glucose + 10% FBS, 0.00234 µM
[14] = RPMI 5 mM glucose + 10% FBS, 0.00702 µM
[15] = RPMI 5 mM glucose + 10% FBS, 0.0211 µM
[16] = RPMI 5 mM glucose + 10% FBS, 0.0632 µM
[17] = RPMI 5 mM glucose + 10% FBS, 0.19 µM
[18] = RPMI 5 mM glucose + 10% FBS, 0.569 µM
[19] = RPMI 5 mM glucose + 10% FBS, 1.71 µM
[20] = RPMI 5 mM glucose + 10% FBS, 5.12 µM
[21] = RPMI 5 mM glucose + 10% FBS, 15.4 µM
[22] = RPMI 5 mM glucose + 10% FBS, 46.1 µM
[23] = RPMI 5 mM glucose + 10% dialyzed FBS, 0.000781 µM
[24] = RPMI 5 mM glucose + 10% dialyzed FBS, 0.00234 µM
[25] = RPMI 5 mM glucose + 10% dialyzed FBS, 0.00702 µM
[26] = RPMI 5 mM glucose + 10% dialyzed FBS, 0.0211 µM
[27] = RPMI 5 mM glucose + 10% dialyzed FBS, 0.0632 µM
[28] = RPMI 5 mM glucose + 10% dialyzed FBS, 0.19 µM
[29] = RPMI 5 mM glucose + 10% dialyzed FBS, 0.569 µM
[30] = RPMI 5 mM glucose + 10% dialyzed FBS, 1.71 µM
[31] = RPMI 5 mM glucose + 10% dialyzed FBS, 5.12 µM
[32] = RPMI 5 mM glucose + 10% dialyzed FBS, 15.4 µM
[33] = RPMI 5 mM glucose + 10% dialyzed FBS, 46.1 µM

| Compound | cell viability [1] [%] | cell viability [2] [%] | cell viability [3] [%] | cell viability [4] [%] | cell viability [5] [%] | cell viability [6] [%] | cell viability [7] [%] | cell viability [8] [%] | cell viability [9] [%] | cell viability [10] [%] | cell viability [11] [%] | cell viability [12] [%] | cell viability [13] [%] | cell viability [14] [%] | cell viability [15] [%] | cell viability [16] [%] | cell viability [17] [%] | cell viability [18] [%] | cell viability [19] [%] | cell viability [20] [%] | cell viability [21] [%] | cell viability [22] [%] | cell viability [23] [%] | cell viability [24] [%] | cell viability [25] [%] | cell viability [26] [%] | cell viability [27] [%] | cell viability [28] [%] | cell viability [29] [%] | cell viability [30] [%] | cell viability [31] [%] | cell viability [32] [%] | cell viability [33] [%] |
| --- | --- | --- | --- | --- | --- | --- | --- | --- | --- | --- | --- | --- | --- | --- | --- | --- | --- | --- | --- | --- | --- | --- | --- | --- | --- | --- | --- | --- | --- | --- | --- | --- | --- |
| Cc1c(CCOc2ccc(C(=O)O)cc2)c2cc(Cl)ccc2n1C(c1ccccc1)c1ccccc1 | 123 | 110 | 112 | 117 | 113 | 113 | 107 | 105 | 101 | 83.8 | 71.8 | 109 | 112 | 111 | 111 | 108 | 108 | 112 | 101 | 106 | 103 | 86.1 | 109 | 111 | 116 | 116 | 107 | 110 | 104 | 113 | 99.3 | 103 | 88.8 |
| CC1(C)Cc2c(-c3ccccc3)c(-c3ccc(Cl)cc3)c(CC(=O)O)n2C1 | 120 | 118 | 117 | 122 | 118 | 110 | 107 | 112 | 105 | 103 | 95.6 | 115 | 112 | 118 | 118 | 110 | 107 | 111 | 110 | 97.8 | 99.6 | 83.5 | 106 | 108 | 115 | 102 | 107 | 102 | 106 | 104 | 103 | 98.1 | 86 |
| CC1CCC(C(=O)N(c2cc(C#CC(C)(C)C)sc2C(=O)O)C2CCC(O)CC2)CC1 (stereo unspecified) | 102 | 91.2 | 98.4 | 95.9 | 95.1 | 95.7 | 93.1 | 88.2 | 83.2 | 59.5 | 49 | 91.2 | 96.3 | 92.4 | 92.5 | 95.6 | 87 | 96.7 | 75.9 | 71.9 | 49.2 | 45.5 | 85.8 | 92.4 | 77.3 | 95 | 86.3 | 83.8 | 88.5 | 77.4 | 69.2 | 54.3 | 38.4 |
| O=C(OC)[C@]12CC[C@@]3(C)[C@]4(C)CC[C@H]5[C@@](C)(C)C(=O)C(=C[C@]5(C)C4=CC(=O)[C@@H]3[C@@H]2C[C@](C)(C)CC1)C#N | 100 | 100 | 96.3 | 102 | 104 | 105 | 99.8 | 97.5 | 99.2 | 2.24 | 2.66 | 92.7 | 96.7 | 97.1 | 90.3 | 109 | 100 | 107 | 102 | 97 | 2.4 | 2.78 | 95.8 | 93.3 | 92.3 | 98.3 | 101 | 108 | 105 | 90.3 | 90.7 | 2.44 | 2.54 |
| C[C@](O)(COc1ccc(C#N)cc1)C(=O)Nc1ccc(C#N)c(C(F)(F)F)c1 | 85.2 | 81.8 | 93 | 94.8 | 99.2 | 93.2 | 102 | 93.9 | 89.7 | 94.6 | 95.3 | 77.6 | 84.4 | 84.3 | 94.1 | 83.8 | 92.2 | 89 | 86.7 | 83.9 | 91 | 80.5 | 80.9 | 82.6 | 78.6 | 81.6 | 83.6 | 76.1 | 82.4 | 80.7 | 77.5 | 82.1 | 68.8 |
| CC[C@H](CC[C@@H](C)[C@H]1CC[C@H]2[C@@H]3C\C=C/4C[C@@H](O)CC[C@]4(C)[C@H]3CC[C@]12C)C(C)C | 117 | 111 | 123 | 119 | 112 | 111 | 111 | 110 | 99.4 | 103 | 75.9 | 112 | 119 | 120 | 121 | 120 | 118 | 111 | 107 | 106 | 108 | 92.2 | 110 | 118 | 110 | 107 | 108 | 110 | 109 | 103 | 103 | 105 | 93.1 |
| Cc1c(CN2CCN(C(=O)[C@H](C)O)CC2)sc2c(N3CCOCC3)nc(-c3cnc(N)nc3)nc12 | 96.6 | 99.8 | 99.1 | 103 | 94.9 | 99.8 | 75 | 69.3 | 63.8 | 60.8 | 59.8 | 95.6 | 94 | 90.7 | 86.8 | 75.1 | 79.5 | 64.4 | 52.9 | 49.4 | 46.2 | 43.5 | 93.5 | 94.8 | 97.4 | 98.5 | 81.6 | 77.8 | 63.1 | 54.5 | 41.9 | 46 | 42.6 |
